Where “and” joins values, the source holds several entries; their conditions need not be identical. Identical values can stand only once.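 All cell lines were grown in 96-well plates and treated with compound for 48 hours. GI50 = concentration required for 50% inhibition of growth. TGI marks complete inhibition of growth.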
Legend:
Test in all cases: NCI tumour cell line growth inhibition, 48 h
HCT-15 colon = tested on: HCT-15 colon
NCI-H522 lung = tested on: NCI-H522 lung
SW-620 colon = tested on: SW-620 colon
MDA-MB-435 = tested on: MDA-MB-435
SR leukemia = tested on: SR leukemia
SK-MEL-28 melanoma = tested on: SK-MEL-28 melanoma
EKVX NSCLC = tested on: EKVX NSCLC
OVCAR-5 ovarian = tested on: OVCAR-5 ovarian
IGROV1 ovarian = tested on: IGROV1 ovarian
RXF 393 renal = tested on: RXF 393 renal
SNB-19 CNS = tested on: SNB-19 CNS
MCF7 breast = tested on: MCF7 breast
PC-3 prostate = tested on: PC-3 prostate
SF-268 CNS = tested on: SF-268 CNS
COLO 205 colon = tested on: COLO 205 colon
A549 NSCLC = tested on: A549 NSCLC
NCI-H23 lung = tested on: NCI-H23 lung
RPMI-8226 leukemia = tested on: RPMI-8226 leukemia
UACC-62 melanoma = tested on: UACC-62 melanoma
SK-MEL-5 melanoma = tested on: SK-MEL-5 melanoma
T-47D breast = tested on: T-47D breast
HOP-62 NSCLC = tested on: HOP-62 NSCLC
K-562 leukemia = tested on: K-562 leukemia
OVCAR-3 ovarian = tested on: OVCAR-3 ovarian
CCRF-CEM leukemia = tested on: CCRF-CEM leukemia
NCI-H226 lung = tested on: NCI-H226 lung
HS 578T breast = tested on: HS 578T breast
SK-MEL-2 melanoma = tested on: SK-MEL-2 melanoma
SN12C renal = tested on: SN12C renal
A498 renal = tested on: A498 renal
MOLT-4 leukemia = tested on: MOLT-4 leukemia
UACC-257 melanoma = tested on: UACC-257 melanoma
ACHN renal = tested on: ACHN renal
SK-OV-3 ovarian = tested on: SK-OV-3 ovarian
HCC-2998 colon = tested on: HCC-2998 colon
UO-31 renal = tested on: UO-31 renal
HCT-116 colon = tested on: HCT-116 colon
NCI/ADR-RES ovarian = tested on: NCI/ADR-RES ovarian
KM12 colon = tested on: KM12 colon
HOP-92 NSCLC = tested on: HOP-92 NSCLC
HL-60(TB) leukemia = tested on: HL-60(TB) leukemia
786-0 renal = tested on: 786-0 renal
BT-549 breast = tested on: BT-549 breast
OVCAR-4 ovarian = tested on: OVCAR-4 ovarian
NCI-H460 lung = tested on: NCI-H460 lung
TK-10 renal = tested on: TK-10 renal
SF-295 CNS = tested on: SF-295 CNS
SNB-75 CNS = tested on: SNB-75 CNS
SF-539 CNS = tested on: SF-539 CNS
MALME-3M melanoma = tested on: MALME-3M melanoma
MDA-MB-231 breast = tested on: MDA-MB-231 breast
OVCAR-8 ovarian = tested on: OVCAR-8 ovarian
U251 CNS = tested on: U251 CNS
M14 melanoma = tested on: M14 melanoma
HT29 colon = tested on: HT29 colon
CAKI-1 renal = tested on: CAKI-1 renal
LOX IMVI melanoma = tested on: LOX IMVI melanoma
DU-145 prostate = tested on: DU-145 prostate

CCN1CCN(CCNc2nccc(-c3c(-c4cccc(O)c4)nc4sccn34)n2)S1(=O)=O
GI50 (HCT-15 colon): 11.7 µM and 8.63 µM
TGI (HCT-15 colon): 32.5 µM and > 100 µM
GI50 (NCI-H522 lung): 7.65 µM and 4.27 µM
TGI (NCI-H522 lung): 29.8 µM and 31.2 µM
GI50 (SW-620 colon): 21.1 µM and 15.7 µM
TGI (SW-620 colon): 32.5 µM and 92.5 µM
GI50 (MDA-MB-435): 0.313 µM and 0.376 µM
TGI (MDA-MB-435): 14.5 µM and 5.79 µM
GI50 (SR leukemia): 7.65 µM and 5.96 µM
TGI (SR leukemia): 32.5 µM and 64.3 µM
GI50 (SK-MEL-28 melanoma): 0.181 µM and 0.13 µM
TGI (SK-MEL-28 melanoma): 32.5 µM and > 100 µM
GI50 (EKVX NSCLC): > 32.5 µM and 34.6 µM
TGI (EKVX NSCLC): > 100 µM
GI50 (OVCAR-5 ovarian): 21.7 µM and 65 µM
TGI (OVCAR-5 ovarian): 32.5 µM and > 100 µM
GI50 (IGROV1 ovarian): 11.9 µM and 5.5 µM
TGI (IGROV1 ovarian): 32.5 µM and > 100 µM
GI50 (RXF 393 renal): 4.02 µM and 5.06 µM
TGI (RXF 393 renal): 22.7 µM and 36.3 µM
GI50 (SNB-19 CNS): > 32.5 µM and 71.5 µM
TGI (SNB-19 CNS): > 100 µM
GI50 (MCF7 breast): 26 µM and 19.5 µM
TGI (MCF7 breast): 32.5 µM and > 100 µM
GI50 (PC-3 prostate): 17.6 µM and 20.1 µM
TGI (PC-3 prostate): 32.5 µM and > 100 µM
GI50 (SF-268 CNS): 23.4 µM and 19.9 µM
TGI (SF-268 CNS): 32.5 µM and > 100 µM
GI50 (COLO 205 colon): 0.296 µM and 0.336 µM
TGI (COLO 205 colon): 32.5 µM and 15.9 µM
GI50 (A549 NSCLC): 15.4 µM and 9.27 µM
TGI (A549 NSCLC): 32.5 µM and > 100 µM
GI50 (NCI-H23 lung): 12.4 µM
TGI (NCI-H23 lung): 32.5 µM and 51.9 µM
GI50 (RPMI-8226 leukemia): 6.37 µM and 16.3 µM
TGI (RPMI-8226 leukemia): 20.7 µM and 40.8 µM
GI50 (UACC-62 melanoma): 0.105 µM and 0.0766 µM
TGI (UACC-62 melanoma): 6.11 µM and 4.62 µM
GI50 (SK-MEL-5 melanoma): 5.28 µM and 6.28 µM
TGI (SK-MEL-5 melanoma): 23.1 µM and 20.7 µM
GI50 (T-47D breast): 22.1 µM and 11 µM
TGI (T-47D breast): 32.5 µM and 53 µM
GI50 (HOP-62 NSCLC): > 32.5 µM and 26.4 µM
TGI (HOP-62 NSCLC): > 100 µM
GI50 (K-562 leukemia): 11.9 µM and 11.4 µM
TGI (K-562 leukemia): 32.5 µM and > 100 µM
GI50 (OVCAR-3 ovarian): 20.1 µM and 21.4 µM
TGI (OVCAR-3 ovarian): 32.5 µM and > 100 µM
GI50 (CCRF-CEM leukemia): 8.83 µM and 5.52 µM
TGI (CCRF-CEM leukemia): 32.5 µM and 46.1 µM
GI50 (NCI-H226 lung): > 32.5 µM and 26.4 µM
TGI (NCI-H226 lung): > 32.5 µM and 84.3 µM
GI50 (HS 578T breast): 12.9 µM and 10 µM
TGI (HS 578T breast): 30.2 µM and > 100 µM
GI50 (SK-MEL-2 melanoma): 2.05 µM and 2.6 µM
TGI (SK-MEL-2 melanoma): 10.4 µM and 7.27 µM
GI50 (SN12C renal): 15.2 µM and 7.73 µM
TGI (SN12C renal): 32.5 µM and > 100 µM
GI50 (A498 renal): 16.6 µM and 3.97 µM
TGI (A498 renal): 32.5 µM and 25.6 µM
GI50 (MOLT-4 leukemia): 19.2 µM and 21.7 µM
TGI (MOLT-4 leukemia): 32.5 µM and 57.6 µM
GI50 (UACC-257 melanoma): 0.31 µM and 0.215 µM
TGI (UACC-257 melanoma): 32.5 µM and 9.03 µM
GI50 (ACHN renal): 6.72 µM and 4.13 µM
TGI (ACHN renal): 32 µM and > 100 µM
GI50 (SK-OV-3 ovarian): 7.93 µM and 3.95 µM
TGI (SK-OV-3 ovarian): 32.5 µM and 22.8 µM
GI50 (HCC-2998 colon): 32.1 µM and 29.4 µM
TGI (HCC-2998 colon): 32.5 µM and > 100 µM
GI50 (UO-31 renal): 15.1 µM and 5.75 µM
TGI (UO-31 renal): 32.5 µM and 74 µM
GI50 (HCT-116 colon): 9.72 µM and 3.63 µM
TGI (HCT-116 colon): 32.5 µM and 55.3 µM
GI50 (NCI/ADR-RES ovarian): 23.3 µM and 26.5 µM
TGI (NCI/ADR-RES ovarian): 32.5 µM and 86.1 µM
GI50 (KM12 colon): 11 µM and 11.2 µM
TGI (KM12 colon): 32.5 µM and > 100 µM
GI50 (HOP-92 NSCLC): 6.2 µM and 0.671 µM
TGI (HOP-92 NSCLC): 32.5 µM and 69.9 µM
GI50 (HL-60(TB) leukemia): 11.8 µM
TGI (HL-60(TB) leukemia): 32.5 µM
GI50 (786-0 renal): 22.1 µM and 7.86 µM
TGI (786-0 renal): 32.5 µM and > 100 µM
GI50 (BT-549 breast): 20.4 µM and 6.31 µM
TGI (BT-549 breast): 32.5 µM and 76.6 µM
GI50 (OVCAR-4 ovarian): 19.5 µM and 12.1 µM
TGI (OVCAR-4 ovarian): 32.5 µM and > 100 µM
GI50 (NCI-H460 lung): 11.8 µM and 5.86 µM
TGI (NCI-H460 lung): 32.5 µM and 78.3 µM
GI50 (TK-10 renal): 19.4 µM and 9.68 µM
TGI (TK-10 renal): 32.5 µM and > 100 µM
GI50 (SF-295 CNS): 14.2 µM and 16.4 µM
TGI (SF-295 CNS): 32.5 µM and 48.8 µM
GI50 (SNB-75 CNS): 12.6 µM and 6.84 µM
TGI (SNB-75 CNS): 32.5 µM and > 100 µM
GI50 (SF-539 CNS): 28.6 µM and 21.3 µM
TGI (SF-539 CNS): 32.5 µM and 78.5 µM
GI50 (MALME-3M melanoma): 0.0775 µM and 0.118 µM
TGI (MALME-3M melanoma): 0.42 µM and 0.785 µM
GI50 (MDA-MB-231 breast): 10.5 µM and 7.3 µM
TGI (MDA-MB-231 breast): 32.5 µM and > 100 µM
GI50 (OVCAR-8 ovarian): 16.1 µM and 10.9 µM
TGI (OVCAR-8 ovarian): 32.5 µM and > 100 µM
GI50 (U251 CNS): 30.8 µM and 11.1 µM
TGI (U251 CNS): 32.5 µM and > 100 µM
GI50 (M14 melanoma): 0.168 µM and 0.142 µM
TGI (M14 melanoma): 19.8 µM and 10.8 µM
GI50 (HT29 colon): 4.53 µM and 2.2 µM
TGI (HT29 colon): 32.5 µM and 31.7 µM
GI50 (CAKI-1 renal): 7.33 µM and 3 µM
TGI (CAKI-1 renal): 28.5 µM and > 100 µM
GI50 (LOX IMVI melanoma): 4.96 µM and 2.53 µM
TGI (LOX IMVI melanoma): 25.7 µM and 23.5 µM
GI50 (DU-145 prostate): 16.1 µM and 8.51 µM
TGI (DU-145 prostate): 32.5 µM and > 100 µM
